Where two headings read alike, the source gives them in different places.
Experiments:
[1] = test system: ARE gene family (AKR1B10, AKR1C1, AKR1C2, CYP1B1, FTH1P, FTL, G6PD, GCLM, NQO2, SLC7A11, TXNRD1, UGT1A1, UGT1A9, YWHAZ, CD36, CYP1A1, GCLC, HMOX1, NQO1, PSME2 …)

Text for EPISKIN model: “Sensitizing power” means the ability of a given compound to induce a sensitization reaction according to the concentration of said compound. Sensitizing power is dependent on the quantity of substance necessary to induce sensitization. Thus, the lower the sensitizing quantity necessary to induce a sensitizing response, the stronger the sensitizer is, and vice versa, the higher the sensitizing quantity necessary to induce a sensitizing response, the weaker the sensitizer is.
Thus, steps 1) and 2) will be done for each of the dilutions.

SMILES: Nc1ccccc1O [2-aminophenol]
- sensitizing power (class) (EPISKIN model): STRONG
- AHR expression compared to control ([1]; 0.1%): 1.0
- AHR grade (NUMBER OF GENES) ([1]; 0.1%): 0 (if this expression is lower, the grade is 0)
- AKR1B10 expression compared to control ([1]; 0.1%): 0.8
- AKR1B10 grade (NUMBER OF GENES) ([1]; 0.1%): 0 (if this expression is lower, the grade is 0)
- AKR1C1 expression compared to control ([1]; 0.1%): 1.2
- AKR1C1 grade (NUMBER OF GENES) ([1]; 0.1%): 0 (if this expression is lower, the grade is 0)
- AKR1C2 expression compared to control ([1]; 0.1%): 1.1
- AKR1C2 grade (NUMBER OF GENES) ([1]; 0.1%): 0 (if this expression is lower, the grade is 0)
- ARE >1.3 (NUMBER OF GENES) ([1]; 0.1%): 5
- CD36 expression compared to control ([1]; 0.1%): 0.9
- CD36 grade (NUMBER OF GENES) ([1]; 0.1%): 0 (if this expression is lower, the grade is 0)
- CYP1A1 expression compared to control ([1]; 0.1%): 7.1
- CYP1A1 grade (NUMBER OF GENES) ([1]; 0.1%): 1 (If the expression is greater than 1.3 compared to the control, a grade of 11s given)
- CYP1B1 expression compared to control ([1]; 0.1%): 5.3
- CYP1B1 grade (NUMBER OF GENES) ([1]; 0.1%): 1 (If the expression is greater than 1.3 compared to the control, a grade of 11s given)
- FTH1P expression compared to control ([1]; 0.1%): 0.9
- FTH1P grade (NUMBER OF GENES) ([1]; 0.1%): 0 (if this expression is lower, the grade is 0)
- FTL expression compared to control ([1]; 0.1%): 1.0
- FTL grade (NUMBER OF GENES) ([1]; 0.1%): 0 (if this expression is lower, the grade is 0)
- GCLC expression compared to control ([1]; 0.1%): 1.1
- GCLC grade (NUMBER OF GENES) ([1]; 0.1%): 0 (if this expression is lower, the grade is 0)
- GCLM expression compared to control ([1]; 0.1%): 2.1
- GCLM grade (NUMBER OF GENES) ([1]; 0.1%): 1 (If the expression is greater than 1.3 compared to the control, a grade of 11s given)
- HMOX1 expression compared to control ([1]; 0.1%): 1.1
- HMOX1 grade (NUMBER OF GENES) ([1]; 0.1%): 0 (if this expression is lower, the grade is 0)
- NQO1 expression compared to control ([1]; 0.1%): 0.9
- NQO1 grade (NUMBER OF GENES) ([1]; 0.1%): 0 (if this expression is lower, the grade is 0)
- NQO2 expression compared to control ([1]; 0.1%): 1.0
- NQO2 grade (NUMBER OF GENES) ([1]; 0.1%): 0 (if this expression is lower, the grade is 0)
- S100A8 expression compared to control ([1]; 0.1%): 1.4
- S100A8 grade (NUMBER OF GENES) ([1]; 0.1%): 1 (If the expression is greater than 1.3 compared to the control, a grade of 11s given)
- SLC7A11 expression compared to control ([1]; 0.1%): 2.1
- SLC7A11 grade (NUMBER OF GENES) ([1]; 0.1%): 1 (If the expression is greater than 1.3 compared to the control, a grade of 11s given)
- TOTAL ARE (NUMBER OF GENES) ([1]; 0.1%): 5
- TXNRD1 expression compared to control ([1]; 0.1%): 3.0
- TXNRD1 grade (NUMBER OF GENES) ([1]; 0.1%): 1 (If the expression is greater than 1.3 compared to the control, a grade of 11s given)
- UGT1A1 expression compared to control ([1]; 0.1%): 0.9
- UGT1A1 grade (NUMBER OF GENES) ([1]; 0.1%): 0 (if this expression is lower, the grade is 0)
- UGT1A9 expression compared to control ([1]; 0.1%): 1.1
- UGT1A9 grade (NUMBER OF GENES) ([1]; 0.1%): 0 (if this expression is lower, the grade is 0)
- AHR expression compared to control ([1]; 1%): 0.6
- AHR grade (NUMBER OF GENES) ([1]; 1%): 0 (if this expression is lower, the grade is 0)
- AKR1B10 expression compared to control ([1]; 1%): 0.9
- AKR1B10 grade (NUMBER OF GENES) ([1]; 1%): 0 (if this expression is lower, the grade is 0)
- AKR1C1 expression compared to control ([1]; 1%): 4.3
- AKR1C1 grade (NUMBER OF GENES) ([1]; 1%): 1 (If the expression is greater than 1.3 compared to the control, a grade of 11s given)
- AKR1C2 expression compared to control ([1]; 1%): 1.2
- AKR1C2 grade (NUMBER OF GENES) ([1]; 1%): 0 (if this expression is lower, the grade is 0)
- ARE >1.3 (NUMBER OF GENES) ([1]; 1%): 10
- CD36 expression compared to control ([1]; 1%): 0.6
- CD36 grade (NUMBER OF GENES) ([1]; 1%): 0 (if this expression is lower, the grade is 0)
- CYP1A1 expression compared to control ([1]; 1%): 14.6
- CYP1A1 grade (NUMBER OF GENES) ([1]; 1%): 1 (If the expression is greater than 1.3 compared to the control, a grade of 11s given)
- CYP1B1 expression compared to control ([1]; 1%): 15.6
- CYP1B1 grade (NUMBER OF GENES) ([1]; 1%): 1 (If the expression is greater than 1.3 compared to the control, a grade of 11s given)
- FTH1P expression compared to control ([1]; 1%): 1.2
- FTH1P grade (NUMBER OF GENES) ([1]; 1%): 0 (if this expression is lower, the grade is 0)
- FTL expression compared to control ([1]; 1%): 2.1
- FTL grade (NUMBER OF GENES) ([1]; 1%): 1 (If the expression is greater than 1.3 compared to the control, a grade of 11s given)
- GCLC expression compared to control ([1]; 1%): 2.2
- GCLC grade (NUMBER OF GENES) ([1]; 1%): 1 (If the expression is greater than 1.3 compared to the control, a grade of 11s given)
- GCLM expression compared to control ([1]; 1%): 3.5
- GCLM grade (NUMBER OF GENES) ([1]; 1%): 1 (If the expression is greater than 1.3 compared to the control, a grade of 11s given)
- HMOX1 expression compared to control ([1]; 1%): 1.4
- HMOX1 grade (NUMBER OF GENES) ([1]; 1%): 1 (If the expression is greater than 1.3 compared to the control, a grade of 11s given)
- NQO1 expression compared to control ([1]; 1%): 1.1
- NQO1 grade (NUMBER OF GENES) ([1]; 1%): 0 (if this expression is lower, the grade is 0)
- NQO2 expression compared to control ([1]; 1%): 1.1
- NQO2 grade (NUMBER OF GENES) ([1]; 1%): 0 (if this expression is lower, the grade is 0)
- S100A8 expression compared to control ([1]; 1%): 1.2
- S100A8 grade (NUMBER OF GENES) ([1]; 1%): 0 (if this expression is lower, the grade is 0)
- SLC7A11 expression compared to control ([1]; 1%): 3.2
- SLC7A11 grade (NUMBER OF GENES) ([1]; 1%): 1 (If the expression is greater than 1.3 compared to the control, a grade of 11s given)
- TOTAL ARE (NUMBER OF GENES) ([1]; 1%): 10
- TXNRD1 expression compared to control ([1]; 1%): 4.8
- TXNRD1 grade (NUMBER OF GENES) ([1]; 1%): 1 (If the expression is greater than 1.3 compared to the control, a grade of 11s given)
- UGT1A1 expression compared to control ([1]; 1%): 1.6
- UGT1A1 grade (NUMBER OF GENES) ([1]; 1%): 1 (If the expression is greater than 1.3 compared to the control, a grade of 11s given)
- UGT1A9 expression compared to control ([1]; 1%): 1.0
- UGT1A9 grade (NUMBER OF GENES) ([1]; 1%): 0 (if this expression is lower, the grade is 0)
- AHR expression compared to control ([1]; 10%): 0.7
- AHR grade (NUMBER OF GENES) ([1]; 10%): 0 (if this expression is lower, the grade is 0)
- AKR1B10 expression compared to control ([1]; 10%): 1.1
- AKR1B10 grade (NUMBER OF GENES) ([1]; 10%): 0 (if this expression is lower, the grade is 0)
- AKR1C1 expression compared to control ([1]; 10%): 9.3
- AKR1C1 grade (NUMBER OF GENES) ([1]; 10%): 1 (If the expression is greater than 1.3 compared to the control, a grade of 11s given)
- AKR1C2 expression compared to control ([1]; 10%): 3.4
- AKR1C2 grade (NUMBER OF GENES) ([1]; 10%): 1 (If the expression is greater than 1.3 compared to the control, a grade of 11s given)
- ARE >1.3 (NUMBER OF GENES) ([1]; 10%): 14
- CD36 expression compared to control ([1]; 10%): 0.5
- CD36 grade (NUMBER OF GENES) ([1]; 10%): 0 (if this expression is lower, the grade is 0)
